Assay results: patent US20120184556A1, “SUBSTITUTED ENZOIMIDAZOLESULFONAMIDES AND SUBSTITUTED INDOLESULFONAMIDES AS MGLUR4 POTENTIATORS” (priority 2009, published 2012)
Counter-ions that a name gives are not always drawn.

Molecular target: T1, human mGluR4 (Homo sapiens, UniProt Q14833)
T1 construct: expressed in transfected cells; host or cells: Chinese Hamster Ovary (CHO) cells
Test: human mGluR4 potentiation assay, CHO cells, Fluo-4 calcium fluorescence, agonist EC20
Assay type: cell-based
Details: for Emax: CHO, maximum extent of potentiation, human mGluR4, read-out: GluMax; for EC50: potentiation of human mGluR4 response to EC20 agonist, read-out: hEC50
Method: The disclosed compounds and compositions can be evaluated for their ability to act as a potentiator of metabotropic glutamate receptor activity, in particular mGluR4 activity, by any suitable known methodology known in the art. For example, Chinese Hamster Ovary (CHO) cells transfected with human mGluR4 or HEK cells co-transfected with rat mGluR4 and the G-protein regulated Inwardly Rectifying Potassium channel (GIRK) were plated in clear bottom assay plates for assay in a Hamamatsu FDSS Fluorometric Plate Reader. The cells were loaded with either the Ca2+-sensitive fluorescent dye Fluo-4 or the thallium responsive dye BTC, AM and the plates were washed and placed into a suitable kinetic plate reader. For human mGluR4 assays, a fluorescence baseline was established for 3-5 seconds, the disclosed compounds were then added to the cells, and the response in cells was measured. Approximately two and a half minutes later, a concentration of mGluR4 agonist (e.g. glutamate or L-AP4) eliciting approximately 20% (EC20) of the maximal agonist response was added to the cells, and the response was measured. Two minutes later, a concentration of mGluR4 agonist (e.g. glutamate or L-AP4) eliciting 80% (EC80) of the maximal agonist response was added to the cells, and the response was measured. For rat mGluR4/GIRK experiments, a baseline was established for approximately five seconds, disclosed compounds were added, and either an EC20 or EC80 concentration of agonist was added approximately two and one half minutes later. Potentiation of the agonist response of mGluR4 by the disclosed compounds was observed as an increase in response to the EC20 concentration of agonist in the presence of compound compared to the response to agonist in the absence of compound. Similarly, antagonism of the agonist response of mGluR4 by the disclosed compounds was observed as a decrease in response to the EC80 concentration of agonist in the presence of compound compared to the response to agonist in the absence of compound.
The above described assay operated in two modes. In the first mode, a range of concentrations of the disclosed compounds are added to cells, followed by a single fixed concentration of agonist. If the compound acts as a potentiatior, an EC50 value for potentiation and a maximum extent of potentiation by the compound at this concentration of agonist is determined by non-linear curve fitting. If the compound acts as a noncompetitive antagonist, an IC50 value is determined by non-linear curve fitting. In the second mode, several fixed concentrations of the disclosed compounds are added to various wells on a plate, followed by a range in concentrations of agonist for each concentration of disclosed compound. The EC50 values for the agonist at each concentration of compound are determined by non-linear curve fitting. A decrease in the EC50 value of the agonist with increasing concentrations of the sample compound (a leftward shift of the agonist concentration-response curve) is an indication of the degree of mGluR4 potentiation at a given concentration of the sample compound. A decrease in the maximal response of the agonist with increasing concentrations of the sample compounds, with or without a rightward shift in agonist potency, is an indication of the degree of noncompetitive antagonism at mGluR4. The second mode also indicates whether the sample compounds also affect the maximum response to mGluR4 to agonists.

T1 sequence (Q14833 33-912): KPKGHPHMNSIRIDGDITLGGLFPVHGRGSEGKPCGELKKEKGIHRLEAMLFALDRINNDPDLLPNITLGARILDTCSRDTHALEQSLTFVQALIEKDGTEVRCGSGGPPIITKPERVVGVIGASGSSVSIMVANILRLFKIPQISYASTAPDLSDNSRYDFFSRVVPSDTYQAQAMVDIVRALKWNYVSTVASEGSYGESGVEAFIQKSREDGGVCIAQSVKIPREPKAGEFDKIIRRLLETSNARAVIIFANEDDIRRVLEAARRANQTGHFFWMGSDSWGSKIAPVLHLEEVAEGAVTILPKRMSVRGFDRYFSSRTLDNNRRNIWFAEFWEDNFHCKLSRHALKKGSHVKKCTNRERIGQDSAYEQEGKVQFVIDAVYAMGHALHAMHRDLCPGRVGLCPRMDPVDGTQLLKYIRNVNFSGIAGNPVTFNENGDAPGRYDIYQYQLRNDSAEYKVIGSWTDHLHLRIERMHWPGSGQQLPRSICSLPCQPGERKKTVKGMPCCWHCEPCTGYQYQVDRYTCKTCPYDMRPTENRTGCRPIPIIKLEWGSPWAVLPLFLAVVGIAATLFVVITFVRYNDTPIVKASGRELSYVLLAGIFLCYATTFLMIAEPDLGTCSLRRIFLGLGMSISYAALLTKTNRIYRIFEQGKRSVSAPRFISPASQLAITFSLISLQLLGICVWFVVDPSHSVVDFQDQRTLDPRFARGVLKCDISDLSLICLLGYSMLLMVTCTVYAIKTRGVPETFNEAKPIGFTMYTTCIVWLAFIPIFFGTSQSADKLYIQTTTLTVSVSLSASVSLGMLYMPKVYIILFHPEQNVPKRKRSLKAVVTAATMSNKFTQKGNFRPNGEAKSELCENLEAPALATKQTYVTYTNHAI

Structure (SMILES)	Emax [%]	EC50 [nM]
O=S(=O)(Nc1ccccc1Br)c1ccc2[nH]c(-c3ccccc3)nc2c1 [Example 1, N-(2-Bromophenyl)-2-phenyl-1H-benzo[d]imidazole-5-sulfonamide]	60	499
O=S(=O)(Nc1ccccc1Cl)c1ccc2[nH]c(C3CCCCC3)nc2c1 [Example 4, N-(2-Chlorophenyl)-2-cyclohexyl-1H-benzo[d]imidazole-5-sulfonamide]	141	1760
O=S(=O)(Nc1ccccc1Cl)c1ccc2[nH]c(-c3cccnc3)nc2c1 [Example 5, N-(2-chlorophenyl)-2-(pyridin-3-yl)-1H-benzo[d]imidazole-5-sulfonamide]	84	5250
O=S(=O)(Nc1ccccc1Cl)c1ccc2[nH]c(-c3ccsc3)nc2c1 [Example 6, N-(2-Chlorophenyl)-2-(thiophen-3-yl)-1H-benzo[d]imidazole-5-sulfonamide]	111	361
O=S(=O)(Nc1ccccc1Cl)c1ccc2[nH]c(-c3cnccn3)nc2c1 [Example 7, N-(2-Chlorophenyl)-2-(pyrazin-2-yl)-1H-benzo[d]imidazole-5-sulfonamide]	149	1490
O=S(=O)(Nc1ccccc1Cl)c1ccc2[nH]c(-c3cccnn3)nc2c1 [Example 8, N-(2-chlorophenyl)-2-(pyridazin-3-yl)-1H-benzo[d]imidazole-5-sulfonamide TFA salt]	204	5670
O=S(=O)(Nc1ccccc1Cl)c1ccc2[nH]c(-c3ccncn3)nc2c1 [Example 11, N-(2-Chlorophenyl)-2-(pyrimidin-4-yl)-1H-benzo[d]imidazole-5-sulfonamide]	148	2830
O=S(=O)(Nc1ccccc1Cl)c1ccc2[nH]c(-c3nccs3)nc2c1 [Example 14, N-(2-Chlorophenyl)-2-(thiazol-2-yl)-1H-benzo[d]imidazole-5-sulfonamide]	194	770
O=S(=O)(Nc1ccccc1Cl)c1ccc2[nH]c(-c3ncccc3F)nc2c1 [Example 15, N-(2-Chlorophenyl)-2-(3-fluoropyridin-2-yl)-1H-benzo[d]imidazole-5-sulfonamide]	192	747
O=S(=O)(Nc1cccnc1)c1ccc2[nH]c(-c3ccccc3)nc2c1 [Example 16, 2-Phenyl-N-(pyridin-3-yl)-1H-benzo[d]imidazole-5-sulfonamide bis TFA salt]	41	5950
O=S(=O)(NC1CCCC1)c1ccc2[nH]c(-c3ccccc3)nc2c1 [Example 18, N-Cyclopentyl-2-phenyl-1H-benzo[d]imidazole-5-sulfonamide TFA salt]	105	11700
N#Cc1ccc(NS(=O)(=O)c2ccc3[nH]c(-c4ccccc4)nc3c2)cc1 [Example 19, N-(4-Cyanophenyl)-2-phenyl-1H-benzo[d]imidazole-5-sulfonamide TFA salt]	24	4900
O=S(=O)(Nc1ccccc1Cl)c1ccc2[nH]c(-c3ccccc3F)nc2c1 [Example 21, N-(2-chlorophenyl)-2-(2-fluorophenyl)-1H-benzo[d]imidazole-5-sulfonamide]	64	988
O=S(=O)(Nc1ccccc1Cl)c1ccc2[nH]c(-c3c(F)cccc3Cl)nc2c1 [Example 22, 2-(2-chloro-6-fluorophenyl)-N-(2-chlorophenyl)-1H-benzo[d]imidazole-5-sulfonamide]	59	5750
O=S(=O)(Nc1ccccc1Cl)c1ccc2[nH]c(-c3ccccc3C(F)(F)F)nc2c1 [Example 23, N-(2-chlorophenyl)-2-(2-(trifluoromethyl)phenyl)-1H-benzo[d]imidazole-5-sulfonamide]	36	9440
O=S(=O)(Nc1ccccc1Cl)c1ccc2[nH]c(-c3c(F)cccc3F)nc2c1 [Example 24, N-(2-chlorophenyl)-2-(2,6-difluorophenyl)-1H-benzo[d]imidazole-5-sulfonamide]	160	> 10000
O=S(=O)(Nc1ccccc1Cl)c1ccc2[nH]c(-c3ccco3)nc2c1 [Example 25, N-(2-chlorophenyl)-2-(furan-2-yl)-1H-benzo[d]imidazole-5-sulfonamide]	96	747
O=S(=O)(Nc1ccccc1Cl)c1ccc2[nH]c(-c3ncc[nH]3)nc2c1 [Example 27, N-(2-chlorophenyl)-2-(1H-imidazol-2-yl)-1H-benzo[d]imidazole-5-sulfonamide]	69	12800
O=S(=O)(Nc1ccccc1Cl)c1ccc2[nH]c(-c3ncc(F)cc3F)nc2c1 [Example 31, N-(2-chlorophenyl)-2-(3,5-difluoropyridin-2-yl)-1H-benzo[d]imidazole-5-sulfonamide]	123	473

Second part, the compound after the results:

Emax [%]	EC50 [nM]	Structure (SMILES)
77	353	O=S(=O)(Nc1ccccc1Cl)c1ccc2[nH]c(-c3ccccc3)nc2c1 [Example 2, N-(2-Chlorophenyl)-2-phenyl-1H-benzo[d]imidazole-5-sulfonamide TFA salt]
226	72.3	O=S(=O)(Nc1ccccc1Cl)c1ccc2[nH]c(-c3ccccn3)nc2c1 [Example 3, N-(2-Chlorophenyl)-2-(pyridin-2-yl)-1H-benzo[d]imidazole-5-sulfonamide]
103	318	O=S(=O)(Nc1ccccc1Cl)c1ccc2[nH]c(-c3cccs3)nc2c1 [Example 9, N-(2-Chlorophenyl)-2-(thiophen-2-yl)-1H-benzo[d]imidazole-5-sulfonamide TFA salt]
169	310	O=S(=O)(Nc1ccccc1Cl)c1ccc2[nH]c(-c3cscn3)nc2c1 [Example 10, N-(2-Chlorophenyl)-2-(thiazol-4-yl)-1H-benzo[d]imidazole-5-sulfonamide bis TFA salt]
98	116	O=S(=O)(Nc1ccccc1Cl)c1ccc2[nH]c(-c3cccc(Cl)n3)nc2c1 [Example 12, N-(2-Chlorophenyl)-2-(6-chloropyridin-2-yl)-1H-benzo[d]imidazole-5-sulfonamide]
145	111	O=S(=O)(Nc1ccccc1Cl)c1ccc2[nH]c(-c3cccc(F)n3)nc2c1 [Example 13, N-(2-Chlorophenyl)-2-(6-fluoropyridin-2-yl)-1H-benzo[d]imidazole-5-sulfonamide]
87	320	O=S(=O)(Nc1ccccc1F)c1ccc2[nH]c(-c3ccccc3)nc2c1 [Example 17, N-(2-Fluorophenyl)-2-phenyl-1H-benzo[d]imidazole-5-sulfonamide TFA salt]
49	172	O=S(=O)(Nc1ccccc1Cl)c1ccc2[nH]c(-c3cccc4c3OCO4)nc2c1 [Example 20, 2-(benzo[d][1,3]dioxol-4-yl)-N-(2-chlorophenyl)-1H-benzo[d]imidazole-5-sulfonamide]
68	328	O=S(=O)(Nc1ccccc1Cl)c1ccc2[nH]c(-c3ccc(C(F)(F)F)o3)nc2c1 [Example 26, N-(2-chlorophenyl)-2-(5-(trifluoromethyl)furan-2-yl)-1H-benzo[d]imidazole-5-sulfonamide]
38	318	O=S(=O)(Nc1c(F)cccc1F)c1ccc2[nH]c(-c3ccccc3)nc2c1 [Example 28, N-(2,6-difluorophenyl)-2-phenyl-1H-benzo[d]imidazole-5-sulfonamide]
52	76	Cc1ccc(-c2nc3cc(S(=O)(=O)Nc4ccccc4Cl)ccc3[nH]2)o1 [Example 29, N-(2-chlorophenyl)-2-(5-methylfuran-2-yl)-1H-benzo[d]imidazole-5-sulfonamide]
76	199	O=S(=O)(Nc1ccccc1Cl)c1ccc2[nH]c(-c3ccc(Cl)o3)nc2c1 [Example 30, 2-(5-chlorofuran-2-yl)-N-(2-chlorophenyl)-1H-benzo[d]imidazole-5-sulfonamide]
